Reference: article PMC9174720, “Evaluation of antioxidant and cytotoxic properties of phenolic N-acylhydrazones: structure–activity relationship” (Royal Society Open Science, 2022)
Where two headings read alike, the source gives them in different places.

Legend:
[1] = test system: MRC-5; test: MTT cytotoxicity assay on MRC-5 cells; assay type: cell-based; conditions: Homo sapiens, MRC5, MRC-5 cell line, read-out: Growth inhibitory effects IC50
Description: (§1) In this in vitro study, we investigated the influence of PheNAHs on two model systems: human colorectal carcinoma HCT-116 and human healthy fibroblast cell line MRC-5. Both cell lines of low passages were purchased from the European collection of authenticated cell cultures (ECACC) and were cultivated in Dulbecco's Modified Eagle Medium (DMEM) (Sigma, D5796) cell culture medium supplemented with 10% foetal bovine serum (Sigma, F4135-500 ML) and 1% penicillin/streptomycin (Sigma, P4333-100 ML) in 75 cm^2 culture flasks. The cells were maintained according to the standardized procedure in the incubator with humidified atmosphere supplemented with 5% CO2 at a physiological temperature of 37°C, and after a few passages and a confluence of about 80%, the cells were used in all in vitro experiments (Laboratory for Bioengineering protocol CB-003).
(§2) The ability of synthesized compounds to inhibit the growth of two different cell lines was estimated by a standardized 3-(4,5-dimethylthiazol-2-yl)-2,5-diphenyltetrazolium bromide (MTT) assay (Laboratory for Bioengineering protocol CB-005). The approximative number of 10 000 cells per well (in 96-well microplates) were seeded and kept in the incubator for 24 h to enable cell adhesion. After the incubation period, the cells were treated with investigated compounds in the concentration range from 0,1 to 500 µM dissolved in DMEM. Cytotoxic effect was evaluated 24 and 72 h from treatment by following the number of survived cells, thus the cell viability. MTT assay is based on spectrophotometric measurement of reduction rate of 3-(4,5-dimethylthiazol-2-yl)-2,5-diphenyltetrazolium bromide (MTT, Acros Organics, 158990010) to purple formazan crystals subsequently dissolved in DMSO (Fisher Chemical, D/4121/PB15) on a microplate reader (Rayto 2100C) at 550 nm. The percentage of the survived (viable) cells was estimated by dividing the absorbance of the treatment with the absorbance of the control (non-treated) cells and multiplied by 100 [47]. As positive controls, Leucovorin and Irinotecan were selected as compounds used in colon cancer treatment.
(§3) Biological activity was the result of two individual experiments, performed in triplicate for each dose. Statistical analyses were determined using the one-way analysis of variance (ANOVA) test for multiple comparisons, SPSS (Chicago, IL) statistical software package (SPSS for Windows, v. 17, 2008). The IC50 values were calculated from the dose curves by a computer program (CalcuSyn). IC50 values represent the half-maximal inhibitory concentration of tested compounds to measure the influence in inhibition of cell growth for 50%. […] At the beginning of the process of selecting the anti-cancer drug candidate, it is necessary to make a rough preselection between the tested substances. In vitro analysis on cancer and healthy cell lines is quantified in different ways, selectivity also. The selectivity index (SI) of tested drugs usually refers to the simple ratio of IC50 values determined for cancer and healthy cells. Also, the SI can be used for the expression of many other examples, such as SI between antibacterial and antiviral effect, discrimination of the drugs effect between many cancer cell lines, etc. In our experimentation, the values greater than ‘1’ indicate selectivity of the tested substance toward cancer cell line.

[2] = DPPH radical scavenging assay; assay type: biochemical; conditions: for IC50: DPPH 0.05 mM in methanol, incubated 20 and 60 min, absorbance at 517 nm, mean ± s.d. of three measurements, read-out: IC50 for inactivation of DPPH free radical; for stoichiometric factor (SF): SF=[DPPH]/(2×IC50), good antioxidant if SF ≥ 2
Description: The antioxidant screening of all PheNAHs was performed using the 2,2-diphenyl-1-picrylhydrazyl (DPPH) method. The solution of DPPH radical in methanol (0.05 mM, 1 ml) was mixed with the tested compound (20 µl of different concentrations in dimethyl sulfoxide (DMSO) and 980 µl of methanol). The reaction mixture was incubated in the dark at room temperature for 20 and 60 min after which the absorbance of the sample was measured spectrophotometrically at 517 nm. All measurements were performed in triplicate. Methanol was used as a control solution, whereas quercetin and nordihydroguaiaretic acid (NDGA) were used as reference compounds. […] IC50 is defined as the minimal concentration of tested compound required for reaching 50% of a maximum scavenging capacity. The results were presented as mean values ± standard deviation (s.d.) of three independent measurements. The stoichiometric factor (SF) was calculated for all compounds using the equation [45, 46]:1 SF=[DPPH]/(2×IC50)

[3] = test system: HCT-116; test: MTT cytotoxicity assay on HCT-116 cells; assay type: cell-based, human; conditions: for IC50: Homo sapiens, HCT-116 cell line, read-out: Growth inhibitory effects IC50; for selectivity index (SI): ratio of IC50 values of MRC-5 and HCT-116, values greater than 1 indicate selectivity toward cancer cell line
Description: as §1, §2, §3

Structure (SMILES)	IC50 [2]	IC50 ([1]; 24 h exposure)	IC50 ([1]; 72 h exposure)	IC50 ([3]; 24 h exposure)	IC50 ([3]; 72 h exposure)	stoichiometric factor (SF) [2]	selectivity index (SI) ([3]; after 72 h exposure)	selectivity index (SI) ([3]; after 24 h exposure)
O=C(N/N=C/c1ccc(O)cc1O)c1ccccc1O [2g]	> 100 µM	> 500 µM	> 500 µM	> 500 µM	61.2 µM			
O=C(N/N=C/c1ccc(O)c(O)c1)c1ccccc1O [2h]	1.6 µM	> 500 µM	> 500 µM	> 500 µM	208 µM	7.8		
O=C(N/N=C/c1ccccc1)c1ccc(O)cc1 [3a]	> 100 µM	> 500 µM	> 500 µM	> 500 µM	> 500 µM			
O=C(N/N=C/c1ccccc1O)c1ccc(O)cc1 [3b]	> 100 µM	> 500 µM	> 500 µM	> 500 µM	101 µM		>4.94	
O=C(N/N=C/c1ccc(O)cc1)c1ccc(O)cc1 [3c]	> 100 µM	> 500 µM	> 500 µM	> 500 µM	> 500 µM			
COc1cccc(/C=N/NC(=O)c2ccc(O)cc2)c1O [3d]	> 100 µM	> 500 µM	213 µM	> 500 µM	94.1 µM		2.3	
COc1cc(/C=N/NC(=O)c2ccc(O)cc2)ccc1O [3e]	28.4 ± 0.2 µM	> 500 µM	> 500 µM	> 500 µM	> 500 µM	0.4		
COc1cc(/C=N/NC(=O)c2ccc(O)cc2)cc(OC)c1O [3f]	16.6 ± 0.2 µM	> 500 µM	> 500 µM	> 500 µM	> 500 µM	0.8		
O=C(N/N=C/c1ccc(O)cc1O)c1ccc(O)cc1 [3g]	> 100 µM	> 500 µM	440 µM	> 500 µM	130 µM			
O=C(N/N=C/c1ccc(O)c(O)c1)c1ccc(O)cc1 [3h]	2.5 ± 0.1 µM	> 500 µM	> 500 µM	> 500 µM	107 µM	5		

Second part, led by results:

IC50 [2]	Structure (SMILES)	IC50 ([1]; 24 h exposure)	IC50 ([1]; 72 h exposure)	IC50 ([3]; 24 h exposure)	IC50 ([3]; 72 h exposure)	stoichiometric factor (SF) [2]	selectivity index (SI) ([3]; after 72 h exposure)	selectivity index (SI) ([3]; after 24 h exposure)
> 100 µM	COc1cc(C(=O)N/N=C/c2ccccc2)ccc1O [4a]	> 500 µM	> 500 µM	> 500 µM	> 500 µM			
> 100 µM	COc1cc(C(=O)N/N=C/c2ccccc2O)ccc1O [4b]	> 500 µM	290 µM	250 µM	91.4 µM		3.17	>2.00
> 100 µM	COc1cc(C(=O)N/N=C/c2ccc(O)cc2)ccc1O [4c]	> 500 µM	> 500 µM	> 500 µM	> 500 µM			
> 100 µM	COc1cc(C(=O)N/N=C/c2cccc(OC)c2O)ccc1O [4d]	> 500 µM	128 µM	> 500 µM	202 µM			
22.1 ± 1.1 µM	COc1cc(/C=N/NC(=O)c2ccc(O)c(OC)c2)ccc1O [4e]	> 500 µM	> 500 µM	> 500 µM	> 500 µM	0.6		
6.3 ± 0.3 µM	COc1cc(C(=O)N/N=C/c2cc(OC)c(O)c(OC)c2)ccc1O [4f]	> 500 µM	> 500 µM	> 500 µM	> 500 µM	2		
> 100 µM	COc1cc(C(=O)N/N=C/c2ccc(O)cc2O)ccc1O [4g]	> 500 µM	307 µM	194 µM	> 500 µM			
3.4 ± 0.1 µM	COc1cc(C(=O)N/N=C/c2ccc(O)c(O)c2)ccc1O [4h]	> 500 µM	> 500 µM	> 500 µM	> 500 µM	3.7		
1.3 ± 0.1 µM	O=C(N/N=C/c1ccccc1)c1cc(O)c(O)c(O)c1 [5a]	175 µM	59.2 µM	247 µM	63.5 µM	9.6	0.93	0.71
1.2 ± 0.1 µM	O=C(N/N=C/c1ccccc1O)c1cc(O)c(O)c(O)c1 [5b]	104 µM	52.1 µM	62.6 µM	32.4 µM	10.4	1.61	1.67
2.9 ± 0.1 µM	O=C(N/N=C/c1ccc(O)cc1)c1cc(O)c(O)c(O)c1 [5c]	92 µM	31.9 µM	71.8 µM	38.5 µM	4.3	0.83	1.28
1 ± 0.1 µM	COc1cccc(/C=N/NC(=O)c2cc(O)c(O)c(O)c2)c1O [5d]	180 µM	458 µM	89.9 µM	> 500 µM	12.5	<0.92	2.00
1.9 ± 0.1 µM	COc1cc(/C=N/NC(=O)c2cc(O)c(O)c(O)c2)ccc1O [5e]	> 500 µM	45.8 µM	> 500 µM	65.2 µM	6.6	0.70	
1.1 ± 0.1 µM	COc1cc(/C=N/NC(=O)c2cc(O)c(O)c(O)c2)cc(OC)c1O [5f]	84.3 µM	40 µM	86.9 µM	43.6 µM	11.4	0.92	0.97
0.9 ± 0.1 µM	O=C(N/N=C/c1ccc(O)cc1O)c1cc(O)c(O)c(O)c1 [5g]	76.4 µM	78.6 µM	99.9 µM	77.3 µM	13.9	1.02	0.76
0.7 ± 0.1 µM	O=C(N/N=C/c1ccc(O)c(O)c1)c1cc(O)c(O)c(O)c1 [5h]	> 500 µM	50.6 µM	> 500 µM	58.8 µM	17.9	0.86	
